Measurements published in ChEMBL document CHEMBL1142746, “Triaryl bis-sulfones as cannabinoid-2 receptor ligands: SAR studies” (Bioorg Med Chem Lett, 2005).

Assays:
[1] = target: Cannabinoid receptor (Homo sapiens) (UniProt P34972+P21554); experiment: Ratio of inhibition against Cannabinoid receptor 1 and Cannabinoid receptor 2; assay type: protein assay
Cannabinoid receptor 2 = Cannabinoid receptor 2 (Homo sapiens, UniProt P34972); experiment: Inhibition constant against Cannabinoid receptor 2
Chain of Cannabinoid receptor 2 (P34972 whole entry): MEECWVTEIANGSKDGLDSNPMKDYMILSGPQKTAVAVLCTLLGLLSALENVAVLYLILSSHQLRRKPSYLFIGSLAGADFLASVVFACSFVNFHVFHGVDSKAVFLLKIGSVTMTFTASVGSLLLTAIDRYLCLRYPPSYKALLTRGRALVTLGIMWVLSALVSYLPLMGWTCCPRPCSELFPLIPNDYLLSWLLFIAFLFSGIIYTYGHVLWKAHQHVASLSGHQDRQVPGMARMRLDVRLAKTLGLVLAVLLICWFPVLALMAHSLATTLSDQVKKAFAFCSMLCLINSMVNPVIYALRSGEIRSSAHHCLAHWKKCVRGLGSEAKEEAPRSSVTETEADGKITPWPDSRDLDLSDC

Chain of Cannabinoid receptor (Homo sapiens) (P21554 whole entry, looked up): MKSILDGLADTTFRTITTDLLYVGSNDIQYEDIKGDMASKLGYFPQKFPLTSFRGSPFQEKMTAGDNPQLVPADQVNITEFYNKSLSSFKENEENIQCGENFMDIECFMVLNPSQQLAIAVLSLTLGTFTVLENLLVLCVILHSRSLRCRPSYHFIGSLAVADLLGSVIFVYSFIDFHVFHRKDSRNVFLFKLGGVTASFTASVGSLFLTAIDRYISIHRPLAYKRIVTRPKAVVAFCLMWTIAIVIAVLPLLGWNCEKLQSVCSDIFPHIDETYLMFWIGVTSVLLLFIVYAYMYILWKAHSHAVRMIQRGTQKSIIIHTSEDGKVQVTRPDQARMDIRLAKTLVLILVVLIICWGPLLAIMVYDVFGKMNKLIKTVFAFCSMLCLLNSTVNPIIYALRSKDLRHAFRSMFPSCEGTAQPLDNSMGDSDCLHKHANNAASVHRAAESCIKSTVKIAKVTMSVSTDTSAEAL
Chain of Cannabinoid receptor (Homo sapiens) (P34972 whole entry, looked up): as the sequence (P34972 whole entry) above

| SMILES | Selectivity [1] | Ki (Cannabinoid receptor 2) |
| --- | --- | --- |
| C[C@H](NS(C)(=O)=O)c1ccc(S(=O)(=O)c2ccc(Cl)cc2C(C)(O)c2ccc(Cl)cc2)cc1 (stereo not given in full) | 25 | 230 nM |
| COc1ccc(S(=O)(=O)c2cc(OC)ccc2S(=O)(=O)c2ccc([C@H](C)NS(C)(=O)=O)cc2)cc1 | 2260 | 0.4 nM |
| COc1ccc(S(=O)(=O)c2cc(OC)ccc2Cc2ccc([C@H](C)NS(C)(=O)=O)cc2)cc1 | 1300 | 0.6 nM |
| COc1ccc(S(=O)(=O)c2cc(OC)ccc2S(=O)(=O)c2ccc([C@@H](C)NS(C)(=O)=O)cc2)cc1 | 105 | 30 nM |
| C[C@H](NS(C)(=O)=O)c1ccc(S(=O)(=O)c2ccc(Cl)cc2S(=O)(=O)c2ccc(Cl)cc2)cc1 | 687 | 10 nM |
| C[C@H](NS(C)(=O)=O)c1ccc(Cc2ccc(C(F)(F)F)cc2S(=O)(=O)c2ccccc2F)cc1 | 674 | 1 nM |
| C=C(c1ccccc1F)c1cc(Cl)ccc1S(=O)(=O)c1ccc([C@H](C)NS(C)(=O)=O)cc1 | 17 | 247 nM |
| C[C@H](NS(C)(=O)=O)c1ccc(S(=O)(=O)c2ccccc2S(=O)(=O)c2ccc(Cl)cc2)cc1 | 127 | 58 nM |
| C[C@H](NS(C)(=O)=O)c1ccc(S(=O)(=O)c2ccc(Cl)cc2S(=O)(=O)c2ccccc2F)cc1 | 4390 | 1 nM |
| C[C@H](NS(C)(=O)=O)c1ccc(S(=O)(=O)c2ccccc2S(=O)(=O)c2ccccc2F)cc1 | 1450 | 9 nM |
| Cc1ccc(S(=O)(=O)c2ccc([C@H](C)NS(C)(=O)=O)cc2)c(S(=O)(=O)c2ccccc2F)c1 | 1740 | 0.5 nM |
| C[C@H](NS(C)(=O)=O)c1ccc(S(=O)(=O)c2ccc(OC3CCCC3)cc2S(=O)(=O)c2ccc(Cl)cc2)cc1 | 11 | 232 nM |
| C[C@H](NS(C)(=O)=O)c1ccc(S(=O)(=O)c2ccc(C(F)(F)F)cc2S(=O)(=O)c2ccc(Cl)cc2)cc1 | 558 | 8 nM |
| C[C@H](NS(C)(=O)=O)c1ccc(Cc2ccc(OC(F)(F)F)cc2S(=O)(=O)c2cccc(C(F)(F)F)c2)cc1 | 27 | 35 nM |
| C[C@H](NS(C)(=O)=O)c1ccc(S(=O)(=O)c2ccc(Cl)cc2Oc2ccc(Cl)cc2)cc1 | 3 | 983 nM |
| C[C@H](NS(C)(=O)=O)c1ccc(S(=O)(=O)c2ccc(Cl)cc2S(=O)(=O)c2ccccc2OC(F)(F)F)cc1 | 134 | 128 nM |
| C[C@H](NS(C)(=O)=O)c1ccc(Cc2ccc(Cl)cc2S(=O)(=O)c2ccc(Cl)cc2)cc1 | 188 | 6.7 nM |
| C[C@H](NS(C)(=O)=O)c1ccc(Cc2ccc(OC(F)(F)F)cc2S(=O)(=O)c2ccccc2OC(F)(F)F)cc1 | 60 | 16 nM |
| COc1ccc(S(=O)(=O)c2ccc([C@H](C)NS(C)(=O)=O)cc2)c(S(=O)(=O)c2ccccc2)c1 | 2480 | 0.6 nM |
| C[C@H](NS(C)(=O)=O)c1ccc(S(=O)(=O)c2ccc(Cl)cc2Nc2ccc(Cl)cc2)cc1 | 5 | 278 nM |

| SMILES | Selectivity [1] | Ki (Cannabinoid receptor 2) |
| --- | --- | --- |
| C[C@H](NS(C)(=O)=O)c1ccc(S(=O)(=O)c2ccc(Cl)cc2C(=O)c2ccc(Cl)cc2)cc1 | 284 | 192 nM |
| CC(NS(C)(=O)=O)c1ccc(C(=O)c2ccc(Cl)cc2S(=O)(=O)c2ccc(Cl)cc2)cc1 (stereo not given) | 16 | 410 nM |
| CC(NS(C)(=O)=O)c1ccc(C(=O)c2ccc(OC(F)(F)F)cc2S(=O)(=O)c2ccccc2F)cc1 (stereo not given) | 28 | 179 nM |
| COc1ccc(S(=O)(=O)c2ccc([C@H](C)NS(C)(=O)=O)cc2)c(S(=O)(=O)c2ccc(Cl)cc2)c1 | 1150 | 0.9 nM |
| CCC(c1ccc([C@H](C)NS(C)(=O)=O)cc1)c1ccc(Cl)cc1S(=O)(=O)c1ccc(Cl)cc1 (stereo not given in full) | 48 | 76 nM |
| C[C@H](NS(C)(=O)=O)c1ccc(S(=O)(=O)c2ccc(Cl)cc2S(=O)(=O)c2ccccc2Cl)cc1 | 1780 | 6 nM |
| COc1ccc(S(=O)(=O)c2cc(OC)ccc2C(=O)c2ccc([C@H](C)NS(C)(=O)=O)cc2)cc1 | 108 | 44 nM |
| C[C@H](NS(C)(=O)=O)c1ccc(S(=O)(=O)c2ccc(Cl)cc2S(=O)(=O)c2ccccc2)cc1 | 1940 | 2 nM |
| C[C@H](NS(C)(=O)=O)c1ccc(Cc2ccc(C(F)(F)F)cc2S(=O)(=O)c2cccc(F)c2)cc1 | 438 | 3.5 nM |
| C[C@H](NS(C)(=O)=O)c1ccc(Cc2ccc(OC(F)(F)F)cc2S(=O)(=O)c2ccccc2F)cc1 | 1180 | 0.4 nM |
| C[C@H](NS(C)(=O)=O)c1ccc(S(=O)(=O)c2ccc(Cl)cc2S(=O)(=O)c2cccc(Cl)c2)cc1 | 238 | 23 nM |
| COc1ccc(S(=O)(=O)c2cc(OC)ccc2S(=O)(=O)c2ccc(CNS(C)(=O)=O)cc2)cc1 | 2170 | 1.3 nM |
| C[C@H](NS(C)(=O)=O)c1ccc(Cc2ccc(C(F)(F)F)cc2S(=O)(=O)c2c(F)cccc2F)cc1 | 584 | 1.8 nM |
| C[C@H](NS(C)(=O)=O)c1ccc(S(=O)(=O)c2ccc(Cl)cc2Cc2ccc(Cl)cc2)cc1 | 11 | 164 nM |
| C=C(c1ccc([C@H](C)NS(C)(=O)=O)cc1)c1ccc(OC(F)(F)F)cc1S(=O)(=O)c1ccccc1F | 19 | 86 nM |
| C[C@H](NS(C)(=O)=O)c1ccc(S(=O)(=O)c2ccc(Cl)cc2C(C)(O)c2ccccc2F)cc1 (stereo not given in full) | 111 | 77 nM |
| CO/N=C(\c1ccc([C@H](C)NS(C)(=O)=O)cc1)c1ccc(Cl)cc1S(=O)(=O)c1ccc(Cl)cc1 | 5 | 406 nM |
| C[C@H](NS(C)(=O)=O)c1ccc(S(=O)(=O)c2ccc(O)cc2S(=O)(=O)c2ccc(Cl)cc2)cc1 | 2320 | 13 nM |
| COc1ccc(S(=O)(=O)c2cc(OC)ccc2S(=O)(=O)c2ccc(C(C)(C)NS(C)(=O)=O)cc2)cc1 | 282 | 6 nM |
| C[C@H](NS(C)(=O)=O)c1ccc(S(=O)(=O)c2ccc(C(F)(F)F)cc2S(=O)(=O)c2ccccc2F)cc1 | 3550 | 0.9 nM |
